This is an account of results in patent US20150246141A1, “DIAGNOSTIC AGENTS WITH ENHANCED SENSITIVITY/SPECIFICITY” (BEN-GURION UNIVERSITY OF THE NEGEV RESEARCH AND DEVELOPMENT …, priority 2012, published 2015).

Experiment [1] deals with LS174T tumors. Kind of experiment: Intraluminal (intracolonic) administration to mice bearing rectal LS174T tumors, NIR imaging of excised colon. Format: in vivo, female athymic nude mice. As to the method: […] Then, the mice were sacrificed and the colons were removed. Each colon was spread on a clear film, and imaging was performed using the Odyssey® Infrared Imaging System (Li-Cor Biosciences, Lincoln, Nebr., USA.), with excitation wavelength of 780 nm and emission wavelength of 800 nm Results:

The test system of experiment [2] is cancerous colorectal tissue. Kind of experiment: In situ labeling of surgically excised human colorectal cancer tissue specimens. As to conditions: PBS, 0.2 mg/ml; 20 minutes incubation, washed three times. As to the method:
Polymer solution was dropped onto fresh surgical tissue specimens that were received 15 minutes after surgical excision. After 20 minutes of incubation with the polymeric probe, tissues were washed three times with a large volume of PBS. Tissues were then imaged immediately using the Odyssey® Infrared Imaging System (Li-Cor Biosciences, Lincoln, Nebr., USA.) with excitation wavelength of 780 nm and emission wavelength of 800 nm.

Experiment [3] has as its system HT29 tumors. Description: Intraluminal administration to mouse HT-29 tumor models, NIR imaging. Type of experiment: in vivo, female athymic nude mice. As for the experimental part:
20 min later the colon was washed extensively with PBS and then were allowed to recover for 3 h. Then, the mice were sacrificed and the colons were removed. Each colon was spread on a clear film, and imaging was performed using the Odyssey® Infrared Imaging System (Li-Cor Biosciences, Lincoln, Nebr., USA.), with excitation wavelength of 780 nm and emission wavelength of 800 nm Results:
FIGS. 4C and 4D provide results of similarly treated animals, 2 hours post-administration.

In experiment [4] the test system is LS-174T human colorectal adenocarcinoma. Kind of experiment: Murine orthotopic colorectal tumor model LS-174T, intraluminal instillation, imaging of excised colon and organs. Type of experiment: in vivo, female athymic nude mice. As to conditions: polymer applied intraluminally. As to the method: The murine orthotopic colorectal tumor model LS-174T human colorectal adenocarcinoma cells (3×10^7 cells) were injected (600 μL) into the descending colonic wall of 13 anesthetized, female athymic nude mice, after an over night fast. […] Histopathological examination was performed on paraffin fixed colonic tissue specimens, after an H&E stain and verified that the carcinoma infiltrated within the mucosa, submucosa, and muscular layer
The mice were sacrificed 3 hrs post treatment, their colons exteriorized, separated, cut open, spread on a transparent film with the mucosal aspects upwards, and imaged by the Odyssey® Infrared Imaging System (Li-Cor Biosciences, Lincoln, Nebr., USA.) with excitation wavelength of 780 nm and emission wavelength of 800 nm.

Setting [5] is: immediately post administration of 0.1 mg/ml (200 μg).

In the case of “HPMA copolymer bearing IR783-S-Ph-COOH [P-(AP-IR783)]”, in experiment [1] (40 μg per mouse (0.2 mg/ml), images taken at 4 hours following washing), the “background staining in control mice without tumors” value is recorded as “very little background staining”. Moreover, in experiment [1] (40 μg per mouse (0.2 mg/ml), tumors verified by pathologic evaluation), the “staining in samples taken from mice having tumors” value is recorded as “clear staining was evident”. Also, in experiment [1] (intraluminal application), the tumor associated-vasculature staining entry was “staining was evident”. Moreover, the “accumulation in cancerous tissue” value in experiment [1] (polymer applied intraluminally, LS174T tumor model) is “Selective accumulation”. Besides, in experiment [2], the “binding to near healthy tissue” value is “very low binding”; the “staining at cancerous region in the tissue (polyp and tumor)” value is listed as “markedly intense staining”. Also, in experiment [3] (setting [5]), the “staining of region 4 (no tumors macroscopically; tumors in the submucosa)” value is given as “stained intensely” and the “staining of surface exposed regions (boxes 2, 3)” value is “stained intensely”. In addition, the “accumulation in cancerous tissue” value in experiment [3] (polymer applied intraluminally, HT-29 tumor model) is listed as “Selective accumulation”. Further, the “accumulation in cancerous tissue” value in experiment [4] is “Selective accumulation”.
